# How the values were obtained:
# [1] = The drug is tested on Bacteroides pectinophilus strain: ATCC43243 for biotransformation. The drug concentrations were measured before and after a 12-h incubation by liquid-chromatography-coupled mass spectrometry (LC–MS); settings: 2 µM
# [2] = The drug is tested on Bifidobacterium longum subsp. Infantis strain: CCUG52486 for biotransformation. The drug concentrations were measured before and after a 12-h incubation by liquid-chromatography-coupled mass spectrometry (LC–MS); settings: 2 µM
# [3] = bacteroides thetaiotaomicron, 12 h, 2 µM
# Description: The drug is tested on Bacteroides thetaiotaomicron strain: VPI-5482 for biotransformation. The drug concentrations were measured before and after a 12-h incubation by liquid-chromatography-coupled mass spectrometry (LC–MS)
# [4] = enterocloster bolteae, 12 h, 2 µM
# Description: The drug is tested on Clostridium bolteae strain: ATCCBAA-613 for biotransformation. The drug concentrations were measured before and after a 12-h incubation by liquid-chromatography-coupled mass spectrometry (LC–MS)
# [5] = akkermansia muciniphila, 12 h, 2 µM
# Description: The drug is tested on Akkermansia muciniphila strain: ATCC BAA-835 for biotransformation. The drug concentrations were measured before and after a 12-h incubation by liquid-chromatography-coupled mass spectrometry (LC–MS)
# [6] = The drug is tested on Eggerthella lenta strain: ATCC25559 for biotransformation. The drug concentrations were measured before and after a 12-h incubation by liquid-chromatography-coupled mass spectrometry (LC–MS); settings: 2 µM
SMILES,Bacterial Biotransformation [1],Bacterial Biotransformation [2],Bacterial Biotransformation [3],Bacterial Biotransformation [4],Bacterial Biotransformation [5],Bacterial Biotransformation [6]
CN1CCC(OC(c2ccccc2)c2ccccc2)CC1,Compound NOT metabolized,Compound NOT metabolized,Compound NOT metabolized,,,
Br.COc1ccc2c(c1)[C@]13CCCC[C@@H]1[C@H](C2)N(C)CC3.O [DEXTROMETHORPHAN HYDROBROMIDE],Compound NOT metabolized,Compound NOT metabolized,Compound NOT metabolized,Compound NOT metabolized,,
C[C@H]1O[C@@H](O[C@H]2[C@@H](O)C[C@H](O[C@H]3[C@@H](O)C[C@H](O[C@H]4CC[C@@]5(C)[C@H](CC[C@@H]6[C@@H]5C[C@@H](O)[C@]5(C)[C@@H](C7=CC(=O)OC7)CC[C@]65O)C4)O[C@@H]3C)O[C@@H]2C)C[C@H](O)[C@@H]1O [DIGOXIN],Compound NOT metabolized,Compound NOT metabolized,Compound metabolized,Compound NOT metabolized,Compound NOT metabolized,
O=C(Nc1ccccc1)OCC(CN1CCCCC1)OC(=O)Nc1ccccc1 (stereo not drawn) [DIPERODON],Compound NOT metabolized,Compound NOT metabolized,Compound NOT metabolized,Compound NOT metabolized,Compound NOT metabolized,
CC(C)N(CCC(C(N)=O)(c1ccccc1)c1ccccn1)C(C)C.O=P(O)(O)O (stereo not drawn) [DISOPYRAMIDE PHOSPHATE],Compound NOT metabolized,Compound NOT metabolized,,Compound NOT metabolized,Compound NOT metabolized,
CN(C)CCC=C1c2ccccc2COc2ccccc21 [DOXEPIN],,Compound NOT metabolized,Compound NOT metabolized,Compound NOT metabolized,,
CCN(CC)C(C)CN1c2ccccc2Sc2ccccc21 (stereo not drawn) [ETHOPROPAZINE],Compound metabolized,,Compound metabolized,Compound NOT metabolized,Compound NOT metabolized,
O=C1[C@H](CC[C@H](O)c2ccc(F)cc2)[C@@H](c2ccc(O)cc2)N1c1ccc(F)cc1 [EZETIMIBE],Compound NOT metabolized,Compound NOT metabolized,Compound NOT metabolized,Compound NOT metabolized,Compound NOT metabolized,
CC(C)c1c(CN(C)C(C)Cc2ccccc2)n(C)n(-c2ccccc2)c1=O (stereo not drawn) [FAMPROFAZONE],Compound NOT metabolized,Compound NOT metabolized,Compound metabolized,Compound metabolized,Compound metabolized,
O=C1NCC2(CCN(CCc3ccccc3)CC2)O1 [FENSPIRIDE],Compound NOT metabolized,Compound NOT metabolized,Compound metabolized,Compound NOT metabolized,Compound NOT metabolized,
COCCCC/C(=N\OCCN)c1ccc(C(F)(F)F)cc1.O=C(O)/C=C\C(=O)O [FLUVOXAMINE MALEATE],Compound metabolized,Compound NOT metabolized,Compound metabolized,,,
COc1ccc2c3c1O[C@H]1C[C@@H](O)C=C[C@@]31CCN(C)C2 [GALANTAMINE],Compound NOT metabolized,,Compound metabolized,Compound NOT metabolized,Compound NOT metabolized,
Nc1nc(N)nc(-c2cc(Cl)ccc2Cl)n1.O=C(O)/C=C\C(=O)O [IRSOGLADINE MALEATE],Compound NOT metabolized,,Compound NOT metabolized,Compound NOT metabolized,Compound NOT metabolized,
Nc1nnc(-c2cccc(Cl)c2Cl)c(N)n1 [LAMOTRIGINE],Compound NOT metabolized,,Compound NOT metabolized,Compound NOT metabolized,Compound NOT metabolized,
CC(=O)O[C@]1(C(C)=O)CC[C@H]2[C@@H]3C=C(C)C4=CC(=O)CC[C@]4(C)[C@H]3CC[C@@]21C [MEGESTROL ACETATE],Compound NOT metabolized,Compound NOT metabolized,,Compound NOT metabolized,,Compound NOT metabolized
CN1C(=O)CC(C)(c2ccccc2)C1=O (stereo not drawn) [METHSUXIMIDE],,Compound NOT metabolized,Compound NOT metabolized,Compound NOT metabolized,,
CCN(CC)CCNC(=O)c1cc(Cl)c(N)cc1OC [METOCLOPRAMIDE],Compound NOT metabolized,Compound NOT metabolized,Compound NOT metabolized,Compound NOT metabolized,,Compound NOT metabolized
COCCc1ccc(OCC(O)CNC(C)C)cc1.COCCc1ccc(OCC(O)CNC(C)C)cc1.O=C(O)C(O)C(O)C(=O)O (stereo not drawn) [METOPROLOL TARTRATE],Compound NOT metabolized,Compound NOT metabolized,Compound NOT metabolized,Compound NOT metabolized,,Compound NOT metabolized
CN1CCN2c3ccccc3Cc3ccccc3C2C1 (stereo not drawn) [MIANSERIN],Compound NOT metabolized,Compound NOT metabolized,,Compound NOT metabolized,Compound NOT metabolized,
CC(C)[C@H]1CC[C@H](C(=O)N[C@H](Cc2ccccc2)C(=O)O)CC1 [NATEGLINIDE],Compound NOT metabolized,Compound metabolized,Compound NOT metabolized,Compound NOT metabolized,Compound NOT metabolized,
CN1CCOC(c2ccccc2)c2ccccc2C1 (stereo not drawn) [NEFOPAM],Compound NOT metabolized,Compound NOT metabolized,Compound NOT metabolized,Compound NOT metabolized,,
CN(C)C(=O)Oc1cccc([N+](C)(C)C)c1.[Br-] [NEOSTIGMINE BROMIDE],Compound NOT metabolized,Compound NOT metabolized,Compound metabolized,Compound NOT metabolized,,Compound NOT metabolized
Cc1ccnc2c1NC(=O)c1cccnc1N2C1CC1 [NEVIRAPINE],Compound NOT metabolized,Compound NOT metabolized,Compound NOT metabolized,Compound NOT metabolized,Compound NOT metabolized,
Cc1ccccc1C(OCCN(C)C)c1ccccc1.O=C(O)CC(O)(CC(=O)O)C(=O)O (stereo not drawn) [ORPHENADRINE CITRATE],Compound NOT metabolized,Compound NOT metabolized,Compound NOT metabolized,,,
O=C(O)CCc1nc(-c2ccccc2)c(-c2ccccc2)o1 [OXAPROZIN],Compound NOT metabolized,Compound NOT metabolized,Compound metabolized,Compound NOT metabolized,,
Fc1ccc([C@@H]2CCNC[C@H]2COc2ccc3c(c2)OCO3)cc1 [PAROXETINE],Compound metabolized,Compound NOT metabolized,Compound NOT metabolized,Compound metabolized,Compound NOT metabolized,
CC(=O)CCCCn1c(=O)c2c(ncn2C)n(C)c1=O [PENTOXIFYLLINE],,Compound NOT metabolized,Compound NOT metabolized,,Compound NOT metabolized,
CCOc1ccc(NC(C)=O)cc1 [PHENACETIN],Compound NOT metabolized,Compound NOT metabolized,Compound NOT metabolized,Compound NOT metabolized,Compound NOT metabolized,

# — ChEMBL document CHEMBL5303573, “Mapping human microbiome drug metabolism by gut bacteria and their genes” (Nature, 2019)
